Reference: patent US8906925B2, “Pyrido[4,3-B]indoles containing rigid moieties” (Medivation Technologies, Inc., priority 2008, dated 2014)
pIC50: −log10 of the molar value. Several values for one entry are separate records, joined by “and”; a condition that tells them apart may be missing. Equal entries are not always repeated.

Key:
[1] = biological target: T1, human recombinant serotonin 5-HT7 receptor (Homo sapiens, UniProt P34969); assay: 5-HT7 antagonist functional assay (cAMP, HTRF, CHO cells); type: cell-based; details: vs 100 nM 5-HT
T1 construct: expressed in transfected cells; host or cells: CHO cells
Source text: To determine for agonist or antagonist activity of compounds of the invention in functional assays, human recombinant serotonin 5-HT2A receptor expressed in human embryonic kidney (HEK-293) cells (Jerman J C, Brough S J, Gager T, Wood M, Coldwell M C, Smart D and Middlemiss D N, Eur J Pharmacol, 414: 23-30, 2001) or human recombinant serotonin 5-HT7 receptor expressed in CHO cells (Adham, et al. J. Pharmacol. Exp. Ther. 287:508-514, 1998) was used. Cells were suspended in DMEM buffer, and distributed in microplates. For the 5-HT2A assay, a cytoplasmic calcium fluorescent indicator which varies proportionally to the free cytosolic Ca^2+ ion concentration was mixed with probenicid in HBSS buffer complemented with 20 mM Hepes (pH 7.4), added into each well and equilibrated with the cells for 30 min. at 37° C. followed by 30 min. at 22° C. For the 5-HT7 assay, the reaction product was cAMP, detected by HTRF.
The standard reference antagonist was ketanserin (5-HT2A) or mesulergine (5-HT7), which was tested in each experiment at several concentrations to generate a concentration-response curve from which its IC50 value was calculated. Compounds were screened at […] or lower, using DMSO as vehicle.

[2] = biological target: human dopamine D2L receptor (Homo sapiens, UniProt P14416); assay: Dopamine D2L [35S]GTPγS functional assay (SPA, CHO membranes); type: biochemical; details: read-out: D2L GTPgS % Inhibition
Experimental: To determine for agonist or antagonist activity of compounds of the invention in functional assays, human recombinant dopamine D2L receptor stably expressed in Chinese hamster ovary (CHO) cells (Senogles S E et al. J Biol Chem. 265(8): 4507, 1990) was used. Compounds of invention were pre-incubated with the membranes (0.1 mg/mL) and 10 mM GDP in modified HEPES buffer (20 mM HEPES, pH 7.4, 100 mM NaCl, 10 mM MgCl2, 1 mM DTT, 1 mM EDTA) for 20 min. and Scintillation Proximity Assay (SPA) beads were added for another 60 min. at 30° C. The reaction was initiated by 0.3 nM [^35S]GTPγS for an additional 15 min. incubation period. […] Compounds were screened at […] or lower, using 0.4% DMSO as vehicle. Assay results are presented as the percent response of specific binding in Table 12.

Sprague-Dawley rats = assay: Two-trial novel object recognition in scopolamine treated rats; type: in vivo, rat; details: 0.3 mg/kg
Experimental: Ennaceur, A., and Delacour, J. (1988), Behav. Brain Res. 31:47-59. […] See, e.g., Scali, C., et al., (1994), Neurosci. Letts. […] 53:277-283.
Male Sprague-Dawley rats between six and seven weeks old, weighing between 220-300 grams are obtained from Centre d'Elevage (Rue Janvier, B. P. 55, Le Genest-Saint-Isle 53940, France). The animals are housed in groups of 2 to 4 in polypropylene cages (with a floor area of 1032 cm^2) under standard conditions: at RT (22±2° C.), under a 12 h light/12 h dark cycle, with food and water provided ad libitum.
The experimental arena is a square wooden box (60 cm×60 cm×40 cm) painted dark blue, with 15 cm×15 cm black squares under a clear plexiglass floor. The arena and objects placed inside the arena are cleaned with water between each trial to eliminate any odor trails left by rats. […]
Novel object recognition test is comprised of two trials separated by an interval of 120 min. or 24 hours. […] The time required for each animal to complete 15 seconds of object exploration is determined, with a cut-off time of four min. […] Rats are placed back in the arena for three min., and exploration of both objects is determined. Locomotor activity of rats (number of times rats cross grid lines visible under the clear plexiglass floor) is scored for during T1 and T2. […]
Recognition scores and % of good learners for compounds of the invention are determined.

human dopamine D2L receptor, sequence (P14416 whole entry): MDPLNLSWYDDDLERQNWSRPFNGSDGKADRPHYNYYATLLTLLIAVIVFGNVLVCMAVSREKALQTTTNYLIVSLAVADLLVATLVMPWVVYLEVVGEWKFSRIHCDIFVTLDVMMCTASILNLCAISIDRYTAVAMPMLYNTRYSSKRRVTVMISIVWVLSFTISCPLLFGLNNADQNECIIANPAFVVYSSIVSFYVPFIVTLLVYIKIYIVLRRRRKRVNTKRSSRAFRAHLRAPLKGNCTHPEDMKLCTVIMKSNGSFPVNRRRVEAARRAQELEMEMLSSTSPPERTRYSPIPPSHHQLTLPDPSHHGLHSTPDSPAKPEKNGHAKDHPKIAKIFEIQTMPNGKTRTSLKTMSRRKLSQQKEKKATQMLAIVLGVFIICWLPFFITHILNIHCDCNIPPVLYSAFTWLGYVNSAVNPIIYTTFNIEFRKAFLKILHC
T1 sequence (P34969 whole entry): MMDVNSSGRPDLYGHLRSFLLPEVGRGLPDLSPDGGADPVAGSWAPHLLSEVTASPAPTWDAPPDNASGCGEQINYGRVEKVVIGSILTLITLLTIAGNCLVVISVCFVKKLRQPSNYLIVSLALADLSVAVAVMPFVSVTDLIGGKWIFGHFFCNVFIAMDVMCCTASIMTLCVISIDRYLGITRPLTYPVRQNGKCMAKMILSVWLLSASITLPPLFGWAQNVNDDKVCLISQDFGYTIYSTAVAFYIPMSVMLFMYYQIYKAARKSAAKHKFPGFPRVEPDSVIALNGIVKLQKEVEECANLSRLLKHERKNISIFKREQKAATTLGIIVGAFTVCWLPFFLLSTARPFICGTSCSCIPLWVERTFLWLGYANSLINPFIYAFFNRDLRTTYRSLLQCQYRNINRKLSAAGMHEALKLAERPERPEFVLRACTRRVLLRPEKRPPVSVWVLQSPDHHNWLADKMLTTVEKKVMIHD

For `C/C(=C\n1c2c(c3cc(Cl)ccc31)CN(C)CC2)c1ccc(F)cc1` [Compound 83, (E)-8-chloro-5-(2-(4-fluorophenyl)prop-1-enyl)-2,3,4,5-tetrahydro-2-methyl-1H-pyrido[4,3-b]indole], the pIC50 [1] was 6.34 and 6.11, the inhibition at 0.001 µM ([2]; conc. 1 nM) was 16% and the inhibition at 0.003 µM ([2]; conc. 3 nM) was 28%. For the same compound, the inhibition at 0.01 µM ([2]; conc. 10 nM) was 49%, the inhibition at 0.03 µM ([2]; conc. 30 nM) was 55% and the inhibition at 0.1 µM ([2]; conc. 100 nM) was 77%.

In the case of `C/C(=C\n1c2c(c3cc(Cl)ccc31)CN(C)CC2)c1ccncc1` [Compound 90, (E)-8-chloro-2,3,4,5-tetrahydro-2-methyl-5-(2-(pyridin-4-yl)prop-1-enyl)-1H-pyrido[4,3-b]indole], the “activity in object recognition in the presence of scopolamine” value (Sprague-Dawley rats) was “activity”.
